# Experimental data: patent US4459290A, “C-23-Modified derivatives of OMT, pharmaceutical compositions and method of use” (priority 1982, dated 1984)
# Where two headings read alike, the source gives them in different places.
# How the values were obtained:
# [1] = system: Streptococcus pneumoniae Park I; assay: microbe, parasite or virus in culture; format: cell-based; conditions: Streptococcus pneumoniae
# Protocol: (§1) Especially noteworthy is the improved activity against gram-negative bacteria for several derivatives when compared to the activity of OMT. […] The MIC's in Tables V and VI were determined by standard agar-dilution assays. The MIC's in Table VII were obtained using a conventional broth-dilution microtiter test.
# [2] = system: Streptococcus pyogenes C203; assay: ED50 in mice experimentally infected with S. pyogenes C203 (Table VIII); format: in vivo
# Protocol: The C-23 modified derivatives of OMT of this invention have shown in vivo antimicrobial activity against experimental infections. When two doses of test compound were administered to mice experimentally infected with a gram-positive bacterium, S. pyogenes C203, the activity observed was measured as an ED50 value [effective dose in mg/kg to protect 50% of the test animals: see Warren Wick, et al., J. Bacteriol. 81, 233-235 (1961)].
# Pasteurella multocida = assay: Protection of one-day-old chicks against Pasteurella multocida infection (Table IX); format: in vivo; conditions: subcutaneous 30 mg/kg × 2, 1 and 4 hours post-challenge
# Protocol: The C-23 modified derivatives of OMT have also shown in vivo antibacterial activity against infections induced by gram-negative bacteria. Table IX summarizes the results of tests in which illustrative compounds were evaluated against Pasteurella infections in one-day-old chicks. The compounds were administered by subcutaneous injection at a dosage of 30 mg/kg, 1 and 4 hours post-challenge of the chicks with Pasteurella multocida (0.1 ml of a twenty-hour tryptose broth culture of an avian P. multocida given subcutaneously). In the tests, all ten non-medicated infected chicks died within 24 hours of Pasteurella challenge.
# [3] = system: Staphylococcus epidermidis EPI2; assay: MIC, standard agar-dilution assay (Table V); format: cell-based; conditions: Staphylococcus epidermidis
# Protocol: as §1
# [4] = system: Staphylococcus aureus X1.1; assay: MIC, standard agar-dilution assay (Table V); format: cell-based; conditions: Staphylococcus aureus, X1.1
# Protocol: as §1
# Escherichia coli EC14 = assay: MIC, standard agar-dilution assay (Table V); format: cell-based; conditions: Escherichia coli, EC14
# Protocol: as §1
# [5] = system: Staphylococcus aureus X400; assay: MIC, standard agar-dilution assay (Table V); format: cell-based; conditions: Staphylococcus aureus
# Protocol: as §1
# Shigella sonnei N9 = assay: MIC, standard agar-dilution assay (Table V); format: cell-based
# Protocol: as §1
# [6] = system: Streptococcus Group D X66; assay: MIC, standard agar-dilution assay (Table V); format: cell-based
# Protocol: as §1
# [7] = system: Klebsiella pneumoniae KAE; assay: MIC, standard agar-dilution assay (Table V); format: cell-based; conditions: Klebsiella pneumoniae
# Protocol: as §1
# [8] = system: Staphylococcus epidermidis EPI1; assay: MIC, standard agar-dilution assay (Table V); format: cell-based; conditions: Staphylococcus epidermidis
# Protocol: as §1
# Streptococcus Group 9960 = assay: MIC, standard agar-dilution assay (Table V); format: cell-based; conditions: GROUP9960
# Protocol: as §1
# Escherichia coli N10 = assay: MIC, standard agar-dilution assay (Table V); format: cell-based; conditions: Escherichia coli, N10
# Protocol: as §1
# [9] = system: Staphylococcus aureus V41; assay: MIC, standard agar-dilution assay (Table V); format: cell-based; conditions: Staphylococcus aureus, V41
# Protocol: as §1
# [10] = system: Staphylococcus aureus S13E; assay: MIC, standard agar-dilution assay (Table V); format: cell-based; conditions: Staphylococcus aureus, S13E
# Protocol: as §1
# [11] = system: Klebsiella pneumoniae X26; assay: MIC, standard agar-dilution assay (Table V); format: cell-based; conditions: Klebsiella pneumoniae
# Protocol: as §1
# [12] = system: Pasteurella hemolytica 22C; assay: MIC, broth-dilution microtiter test (Table VII); format: cell-based; conditions: Pasteurella, P. hemolytica 22C, read-out: MIC
# Protocol: as §1
# [13] = system: Pasteurella multocida 22A; assay: MIC, broth-dilution microtiter test (Table VII); format: cell-based; conditions: Pasteurella multocida; P. multocida 22A; broth-dilution microtiter; read-out: MIC
# Protocol: as §1
# Mycoplasma hyorhinis = assay: MIC, broth-dilution microtiter test (Table VII); format: cell-based
# Protocol: as §1
# [14] = system: Pasteurella multocida 60A; assay: MIC, broth-dilution microtiter test (Table VII); format: cell-based; conditions: Pasteurella multocida
# Protocol: as §1
# [15] = system: Pasteurella hemolytica 41D; assay: MIC, broth-dilution microtiter test (Table VII); format: cell-based; conditions: Pasteurella, P. hemolytica 41D, read-out: MIC
# Protocol: as §1
# [16] = system: Pasteurella multocida 17E; assay: MIC, broth-dilution microtiter test (Table VII); format: cell-based; conditions: Pasteurella multocida
# Protocol: as §1
# [17] = system: Pasteurella hemolytica 23C; assay: MIC, broth-dilution microtiter test (Table VII); format: cell-based; conditions: Pasteurella, P. hemolytica 23C, read-out: MIC
# Protocol: as §1
# Mycoplasma synoviae = assay: MIC, broth-dilution microtiter test (Table VII); format: cell-based; conditions: Mycoplasmopsis synoviae; M. synoviae; broth-dilution microtiter; read-out: MIC
# Protocol: as §1
# Staphylococcus aureus = assay: MIC, broth-dilution microtiter test (Table VII); format: cell-based; conditions: Staphylococcus aureus
# Protocol: as §1
# [18] = system: Pasteurella multocida 68C; assay: MIC, broth-dilution microtiter test (Table VII); format: cell-based; conditions: Pasteurella multocida
# Protocol: as §1
# [19] = system: Pasteurella multocida 40G; assay: MIC, broth-dilution microtiter test (Table VII); format: cell-based; conditions: Pasteurella multocida; P. multocida 40G; broth-dilution microtiter; read-out: MIC
# Protocol: as §1
# Streptococcus sp. 80 = assay: MIC, broth-dilution microtiter test (Table VII); format: cell-based; conditions: Streptococcus sp. 80; broth-dilution microtiter; read-out: MIC
# Protocol: as §1
# Mycoplasma gallisepticum = assay: MIC, broth-dilution microtiter test (Table VII); format: cell-based; conditions: Mycoplasmoides gallisepticum
# Protocol: as §1
# [20] = system: Streptococcus pyogenes C203; assay: MIC, standard agar-dilution assay (Table V); format: cell-based; conditions: Streptococcus pyogenes
# Protocol: (§2) The MIC's in Tables V and VI were determined by standard agar-dilution assays. The MIC's in Table VII were obtained using a conventional broth-dilution microtiter test.
# [21] = system: Haemophilus influenzae Holt; assay: MIC, standard agar-dilution assay (Table V); format: cell-based; conditions: Haemophilus influenzae
# Protocol: as §2
# [22] = system: Haemophilus influenzae R252; assay: MIC, standard agar-dilution assay (Table V); format: cell-based; conditions: Haemophilus influenzae, R252
# Protocol: as §2
# Escherichia coli TEM = assay: MIC, standard agar-dilution assay (Table V); format: cell-based; conditions: Escherichia coli
# Protocol: as §2
Compound,Number of deaths/number treated (Pasteurella multocida),MIC [4] [µg/mL],MIC (Escherichia coli EC14) [µg/mL],MIC (Shigella sonnei N9) [µg/mL],MIC [7] [µg/mL],MIC (Escherichia coli N10) [µg/mL],MIC [9] [µg/mL],MIC [10] [µg/mL],MIC [12] [µg/mL],MIC [13] [µg/mL],MIC [15] [µg/mL],MIC [17] [µg/mL],MIC (Mycoplasma synoviae) [µg/mL],MIC [19] [µg/mL],MIC (Streptococcus sp. 80) [µg/mL],MIC [21] [µg/mL],MIC [22] [µg/mL],also measured
"CCC1OC(=O)CC(O)C(C)C(OC2OC(C)C(O)C(N(C)C)C2O)C(CC=O)CC(C)C(=O)C=CC(C)=CC1CNC(=O)Cc1ccccc1 (stereo not drawn) [Compound 10, 23-Deoxy-23-N-(phenylacetyl)amino-OMT]",3/10,0.5,> 128,> 128,> 128,> 128,1,0.5,12.5,25,25,12.5,0.19,12.5,0.19,2,2,"MIC [1]: 0.25 µg/mL; ED50 ([2]; C203, po, read-out: ED50, Oral): > 100 mg/kg; ED50 ([2]; C203, sc, mice, subcutaneous, doses given 1 and 4 hours postinfection, read-out: ED50, Subcutaneous): 5.8 mg/kg; MIC ([3]; EPI2): 1 µg/mL; MIC ([5]; X400): 1 µg/mL; MIC [6]: 0.5 µg/mL; MIC ([8]; EPI1): 0.25 µg/mL; MIC (Streptococcus Group 9960): 0.5 µg/mL; MIC ([11]; X26): 8 µg/mL; MIC (Mycoplasma hyorhinis): 50 µg/mL; MIC ([14]; 60A): 3.12 µg/mL; MIC ([16]; 17E): 3.12 µg/mL; MIC (Staphylococcus aureus): 0.78 µg/mL; MIC ([18]; 68C): 1.56 µg/mL; MIC (Mycoplasma gallisepticum): 1.56 µg/mL; MIC ([20]; C203): 0.25 µg/mL; MIC (Escherichia coli TEM; E. coli TEM, agar dilution, read-out: MIC): 32 µg/mL"
"CCC1OC(=O)CC(O)C(C)C(OC2OC(C)C(O)C(N(C)C)C2O)C(CC=O)CC(C)C(=O)C=CC(C)=CC1CNC(=O)[C@H](NC(=O)OC(C)(C)C)c1ccccc1 (single isomer, unassigned) [Compound 11, 23-Deoxy-23-[(D)-(-)-(N-t-BOC-phenylglycyl)amino]-OMT]",10/10,1,> 128,> 128,> 128,> 128,2,2,25,12.5,50,25,0.78,12.5,0.78,8,8,"MIC ([1]; S. pneumoniae Park I, agar dilution, read-out: MIC): 0.25 µg/mL; MIC ([3]; S. epidermidis EPI2, agar dilution, read-out: MIC): 4 µg/mL; MIC ([5]; S. aureus X400, methicillin-resistant strain, agar dilution, read-out: MIC): 4 µg/mL; MIC ([6]; Streptococcus Group D X66, agar dilution, read-out: MIC): 2 µg/mL; MIC ([8]; S. epidermidis EPI1, agar dilution, read-out: MIC): 1 µg/mL; MIC (Streptococcus Group 9960; Streptococcus Group 9960, agar dilution, read-out: MIC): 2 µg/mL; MIC ([11]; K. pneumoniae X26, agar dilution, read-out: MIC): 16 µg/mL; MIC (Mycoplasma hyorhinis; M. hyorhinis, broth-dilution microtiter, read-out: MIC): > 50 µg/mL; MIC ([14]; P. multocida 60A, avian isolate, broth-dilution microtiter, read-out: MIC): 12.5 µg/mL; MIC ([16]; P. multocida 17E, bovine isolate, broth-dilution microtiter, read-out: MIC): 6.25 µg/mL; MIC (Staphylococcus aureus; S. aureus, broth-dilution microtiter, read-out: MIC): 3.12 µg/mL; MIC ([18]; P. multocida 68C, broth-dilution microtiter, read-out: MIC): 6.25 µg/mL; MIC (Mycoplasma gallisepticum; M. gallisepticum, broth-dilution microtiter, read-out: MIC): 0.78 µg/mL; MIC ([20]; S. pyogenes C203, agar dilution, read-out: MIC): 0.5 µg/mL; MIC (Escherichia coli TEM): > 128 µg/mL"
